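48-hour exposure; five concentrations; linearly interpolated endpoints. GI50 is the concentration that inhibits growth by half. Definition used: TGI = concentration required for complete inhibition of growth.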
How the values were obtained:
Experiment in all cases: NCI tumour cell line growth inhibition, 48 h
EKVX NSCLC = tested on: EKVX NSCLC
HCC-2998 colon = tested on: HCC-2998 colon
K-562 leukemia = tested on: K-562 leukemia
HOP-62 NSCLC = tested on: HOP-62 NSCLC
PC-3 prostate = tested on: PC-3 prostate
DU-145 prostate = tested on: DU-145 prostate
SK-OV-3 ovarian = tested on: SK-OV-3 ovarian
UO-31 renal = tested on: UO-31 renal
SNB-19 CNS = tested on: SNB-19 CNS
SW-620 colon = tested on: SW-620 colon
HCT-15 colon = tested on: HCT-15 colon
SF-295 CNS = tested on: SF-295 CNS
HCT-116 colon = tested on: HCT-116 colon
MCF7 breast = tested on: MCF7 breast
OVCAR-3 ovarian = tested on: OVCAR-3 ovarian
HS 578T breast = tested on: HS 578T breast
KM12 colon = tested on: KM12 colon
SF-539 CNS = tested on: SF-539 CNS
LOX IMVI melanoma = tested on: LOX IMVI melanoma
NCI-H23 lung = tested on: NCI-H23 lung
BT-549 breast = tested on: BT-549 breast
ACHN renal = tested on: ACHN renal
MOLT-4 leukemia = tested on: MOLT-4 leukemia
SK-MEL-2 melanoma = tested on: SK-MEL-2 melanoma
A549 NSCLC = tested on: A549 NSCLC
M14 melanoma = tested on: M14 melanoma

## COc1ccc2[nH]cc(-c3cc4nc(-c5cn(C)c6ncc(Br)cc56)cc(N)n4n3)c2c1
EKVX NSCLC
  GI50: 1660 nM
  TGI: 3840 nM
HCC-2998 colon
  GI50: 1740 nM
  TGI: 3170 nM
K-562 leukemia
  GI50: 2590 nM
  TGI: > 100000 nM
HOP-62 NSCLC
  GI50: 2070 nM
  TGI: 5490 nM
PC-3 prostate
  GI50: 2540 nM
  TGI: 10300 nM
DU-145 prostate
  GI50: 1780 nM
  TGI: 3640 nM
SK-OV-3 ovarian
  GI50: 2380 nM
  TGI: 5640 nM
UO-31 renal
  GI50: 1730 nM
  TGI: 4160 nM
SNB-19 CNS
  GI50: 2450 nM
  TGI: 6630 nM
SW-620 colon
  GI50: 1750 nM
  TGI: 3350 nM
HCT-15 colon
  GI50: 1350 nM
  TGI: 2810 nM
SF-295 CNS
  GI50: 1570 nM
  TGI: 3070 nM
HCT-116 colon
  GI50: 1810 nM
  TGI: 3300 nM
MCF7 breast
  GI50: 1670 nM
  TGI: 3050 nM
OVCAR-3 ovarian
  GI50: 1810 nM
  TGI: 3490 nM
HS 578T breast
  GI50: 1800 nM
  TGI: 4580 nM
KM12 colon
  GI50: 1990 nM
  TGI: 4420 nM
SF-539 CNS
  GI50: 1640 nM
  TGI: 3030 nM
LOX IMVI melanoma
  GI50: 1650 nM
  TGI: 3110 nM
NCI-H23 lung
  GI50: 1760 nM
  TGI: 3510 nM
BT-549 breast
  GI50: 2140 nM
  TGI: 4670 nM
ACHN renal
  GI50: 1460 nM
  TGI: 3350 nM
MOLT-4 leukemia
  GI50: 2240 nM
  TGI: > 100000 nM
SK-MEL-2 melanoma
  GI50: 1680 nM
  TGI: 3250 nM
A549 NSCLC
  GI50: 1770 nM
  TGI: 5070 nM
M14 melanoma
  GI50: 1830 nM
  TGI: 3550 nM
